The source made the active and inactive calls.
Tests used:
Galanin receptor type 3 = biological target: T1, Galanin receptor type 3 (Homo sapiens, UniProt O60755); test: Fluorescence-based cell-based primary high throughput dose response assay to identify antagonists of the Galanin Receptor 3 (GalR3).; assay type: functional
T1 sequence (O60755 whole entry): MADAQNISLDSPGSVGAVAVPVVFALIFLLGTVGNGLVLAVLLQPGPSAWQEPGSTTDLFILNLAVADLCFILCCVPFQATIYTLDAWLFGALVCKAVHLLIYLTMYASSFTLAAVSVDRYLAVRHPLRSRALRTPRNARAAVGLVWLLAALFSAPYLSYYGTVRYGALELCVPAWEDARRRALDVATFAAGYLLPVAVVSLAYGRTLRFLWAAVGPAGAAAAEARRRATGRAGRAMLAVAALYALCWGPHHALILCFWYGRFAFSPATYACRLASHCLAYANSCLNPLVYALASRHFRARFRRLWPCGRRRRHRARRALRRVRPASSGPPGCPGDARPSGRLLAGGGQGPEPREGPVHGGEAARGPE

cells = assay type: functional, cell-based; conditions: HEK-CNG
[1] = biological target: T2, Corticotropin-releasing factor receptor 2/Corticotropin-releasing factor-binding protein (Homo sapiens, UniProt P24387+Q13324); test: Dose Response confirmation of uHTS hits for small molecule antagonists of the CRF-binding protein and CRF-R2 receptor complex.; assay type: functional; conditions: read-out: IC50_Mean
T2 sequence (Q13324 whole entry): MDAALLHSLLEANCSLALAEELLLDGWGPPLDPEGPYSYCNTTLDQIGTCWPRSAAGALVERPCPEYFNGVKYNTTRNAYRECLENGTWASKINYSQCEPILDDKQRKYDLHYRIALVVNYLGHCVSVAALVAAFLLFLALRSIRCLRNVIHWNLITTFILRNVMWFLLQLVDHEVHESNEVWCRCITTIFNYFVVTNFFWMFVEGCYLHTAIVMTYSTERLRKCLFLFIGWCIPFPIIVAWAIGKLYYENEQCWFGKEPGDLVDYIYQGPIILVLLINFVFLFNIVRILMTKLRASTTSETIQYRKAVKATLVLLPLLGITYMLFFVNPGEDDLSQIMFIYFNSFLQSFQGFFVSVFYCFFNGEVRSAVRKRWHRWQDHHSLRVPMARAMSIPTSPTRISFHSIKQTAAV
T2 sequence (P24387 whole entry): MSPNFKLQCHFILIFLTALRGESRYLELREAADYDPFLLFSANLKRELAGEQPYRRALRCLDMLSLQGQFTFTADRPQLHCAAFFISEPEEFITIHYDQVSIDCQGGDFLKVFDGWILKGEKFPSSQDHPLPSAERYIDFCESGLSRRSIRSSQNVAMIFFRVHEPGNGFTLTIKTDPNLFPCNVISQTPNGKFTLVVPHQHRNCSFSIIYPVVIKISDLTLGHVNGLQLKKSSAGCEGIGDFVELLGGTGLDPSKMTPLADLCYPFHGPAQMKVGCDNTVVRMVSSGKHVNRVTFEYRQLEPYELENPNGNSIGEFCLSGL

[2] = biological target: T2, Corticotropin-releasing factor receptor 2/Corticotropin-releasing factor-binding protein; test: activators of CRF receptor 2 with binding protein – uHTS hits, confirmation (AID 602473); assay type: functional; conditions: read-out: EC50_Mean
[3] = CRF-BP/CRF-R2 complex antagonists, dose response, cell-based, uHTS hits, 384-well (AID 651639); assay type: functional, Homo sapiens; conditions: read-out: IC50_Mean
INS1 = test: beta cell apoptosis inhibitors, cytokine rescue, dose response, luminescence, retest (AID 449756); assay type: functional, cell-based; conditions: Rattus norvegicus;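 also: cell death triggered by IL-1 beta plus TNF-alpha plus IFN-gamma mixture; protective hits raise ATP signal compared with cytokine alone wells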
[4] = biological target: Photoreceptor-specific nuclear receptor (Homo sapiens, UniProt Q9Y5X4); assay type: functional, cell-based;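 also: CHO-S cells with Gal4-NCOR and VP16-NR2E3 two-hybrid luciferase reporter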
Chain of Photoreceptor-specific nuclear receptor (Q9Y5X4 whole entry, the tested form may be a part): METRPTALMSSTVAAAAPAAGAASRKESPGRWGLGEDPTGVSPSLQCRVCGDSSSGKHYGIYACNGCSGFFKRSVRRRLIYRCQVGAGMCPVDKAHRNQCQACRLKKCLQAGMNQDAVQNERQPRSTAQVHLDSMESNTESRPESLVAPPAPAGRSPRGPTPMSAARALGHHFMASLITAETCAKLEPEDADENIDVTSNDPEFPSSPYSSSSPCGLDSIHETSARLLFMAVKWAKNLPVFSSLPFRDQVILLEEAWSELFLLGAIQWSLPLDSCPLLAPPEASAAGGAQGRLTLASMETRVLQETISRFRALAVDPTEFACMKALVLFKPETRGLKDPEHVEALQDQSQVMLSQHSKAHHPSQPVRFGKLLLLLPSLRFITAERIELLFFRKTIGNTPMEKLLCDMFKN

[5] = biological target: T3, Carboxy-terminal domain RNA polymerase II polypeptide A small phosphatase 1 (Homo sapiens, UniProt Q9GZU7); test: inhibitors of CTDSP1, concentration-response testing, biochemical assay, absorbance-based, actives from ultra-high-throughput screening (AID 540297); assay type: functional
T3 sequence (Q9GZU7 whole entry): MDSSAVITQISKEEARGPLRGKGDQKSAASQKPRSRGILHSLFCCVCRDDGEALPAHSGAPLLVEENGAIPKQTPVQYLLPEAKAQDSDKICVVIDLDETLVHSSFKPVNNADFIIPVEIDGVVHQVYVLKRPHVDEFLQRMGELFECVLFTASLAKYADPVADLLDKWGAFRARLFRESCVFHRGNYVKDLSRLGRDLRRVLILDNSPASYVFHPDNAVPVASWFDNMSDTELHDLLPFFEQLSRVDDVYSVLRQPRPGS

[6] = biological target: T4, Microphthalmia-associated transcription factor (Homo sapiens, UniProt O75030); test: TRPM1 promoter luciferase signal decrease, dose response, MITF inhibitor project, cell-based, SK-MEL-5, cherry-picked, set 3 (AID 493073); assay type: functional
T4 sequence (O75030 whole entry): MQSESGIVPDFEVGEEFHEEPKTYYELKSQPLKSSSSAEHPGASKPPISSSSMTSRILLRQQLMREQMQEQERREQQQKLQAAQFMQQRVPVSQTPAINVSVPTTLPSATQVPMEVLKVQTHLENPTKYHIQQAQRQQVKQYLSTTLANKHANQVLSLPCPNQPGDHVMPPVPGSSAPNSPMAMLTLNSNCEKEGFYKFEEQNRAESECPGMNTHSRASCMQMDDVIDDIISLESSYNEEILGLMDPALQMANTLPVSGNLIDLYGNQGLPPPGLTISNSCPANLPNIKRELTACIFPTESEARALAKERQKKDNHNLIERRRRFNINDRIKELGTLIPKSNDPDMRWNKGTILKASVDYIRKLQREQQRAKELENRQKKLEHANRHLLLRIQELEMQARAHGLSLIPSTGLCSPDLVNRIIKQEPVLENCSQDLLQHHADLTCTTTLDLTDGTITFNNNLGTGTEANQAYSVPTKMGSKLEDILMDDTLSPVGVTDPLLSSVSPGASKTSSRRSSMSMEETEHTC

A-375 = test: MITF: Counter assay: A375 proliferation Measured in Cell-Based System Using Plate Reader - 2084-03_Inhibitor_Dose_DryPowder_Activity. [Related pubchem assays (depositor defined):AID488944]; assay type: functional; conditions: Homo sapiens
[7] = A549 cell cytotoxicity, dose response, cytotoxicity control, plate reader, cherry-pick, antagonist series (AID 743412); assay type: functional, cell-based
[8] = HepG2 cell cytotoxicity, dose response, cytotoxicity control, plate reader, cherry-pick, antagonist series (AID 743416); assay type: functional, cell-based
[9] = Luminescence Cell-Based Dose Retest to Confirm Inhibitors of Cancer Stem Cells. [Related pubchem assays (depositor defined):AID2717, AID2721]; assay type: functional; conditions: Homo sapiens
Nonstructural protein 1 = Nonstructural protein 1 (Influenza A virus, UniProt Q194T2); assay type: functional, Influenza A virus (A/California/07/2009(H1N1))
Chain of Nonstructural protein 1 (Q194T2 whole entry): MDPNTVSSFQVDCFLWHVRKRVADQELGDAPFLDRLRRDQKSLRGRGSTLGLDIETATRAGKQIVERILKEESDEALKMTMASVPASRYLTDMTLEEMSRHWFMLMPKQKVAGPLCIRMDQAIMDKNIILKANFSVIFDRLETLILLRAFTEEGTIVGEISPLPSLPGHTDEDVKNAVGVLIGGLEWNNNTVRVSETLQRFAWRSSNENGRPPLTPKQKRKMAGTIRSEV

[10] = Shn3 3'UTR reporter inhibitors, dose response, cell-based, Clone20 osteoblasts, firefly luciferase, cherry-picked (AID 624132); assay type: functional;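 also: firefly luciferase luminescence from reporter carrying the Shn3 3'UTR in osteoblasts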
[11] = HepG2 cell cytotoxicity, dose response, cytotoxicity control for Shn3 inhibitor project, CellTiter-Glo, cherry-picked (AID 624134); assay type: functional, cell-based
[12] = control 3'UTR Renilla luciferase suppression, dose response, counter-screen for Shn3 inhibitor project, cell-based, Clone20-Shn3RL, cherry-picked (AID 624133); assay type: functional

Compound | IC50 [1] | EC50 [2] | IC50 [3] | IC50 [4] | further results
COCC1CCCN(C(=O)c2cc(COc3ccc4ncccc4c3)on2)C1 (configuration not stated) | – | – | – | – | IC50 (Galanin receptor type 3): 1.3 µM (active); EC50 (cells): > 29.9 µM (inactive)
COc1ccc(S(=O)(=O)N2CCCCCC2)cc1C(=O)N(C)Cc1ccc(C(C)(C)C)cc1 | 14.6 µM (active) | > 53 µM (inactive) | 13.5 µM (active) | – | –
CCCOc1ccc(CSc2nc3ccccc3[nH]2)cc1 | – | – | – | 4.25 µM (active) | AC50 (INS1): 3.73 µM (active); IC50 (Galanin receptor type 3): 2.27 µM (active); EC50 (cells): > 29.9 µM (inactive)
COCCCNC(=S)N1CCN(c2nc(-c3ccc(Cl)cc3)cs2)CC1 | – | – | – | 4.25 µM (active) | –
COC(=O)c1cc(NC(=O)Cc2cccs2)cc(C(=O)OC)c1 | – | – | – | – | IC50 [5]: 3.84 µM (active)
COc1ccc(C)cc1NC(=O)NC1CC(=O)N(c2ccc3c(c2)OCCO3)C1 (configuration not stated) | – | – | – | 3.25 µM (active) | –
CCOc1ccc(-n2c(SCC(=O)NCc3ccco3)nc3c4ccccc4nc-3c2O)cc1 | 3.76 µM (active) | > 53 µM (inactive) | 15 µM (active) | – | –
O=C(COc1cc(Cl)ccc1Cl)N1CCNC1=O | 27.4 µM (active) | > 53 µM (inactive) | 8.63 µM (active) | – | –
COC(=O)c1ccc(Nc2cc(C)nc3ccc(C)cc23)cc1 | – | – | – | – | AC50 [6]: 6.85 µM (active); AC50 (A-375): 36.8 µM (active); AC50 [7]: 4.31 µM (active); AC50 [8]: 13.2 µM (active)
O=C(O)C1OC1(c1ccccc1Cl)c1ccccc1Cl (configuration not stated) | 23.4 µM (active) | > 53 µM (inactive) | > 20 µM (inactive) | – | –
Clc1cc2cccnc2c2ncccc12 | – | – | – | 5.53 µM (active) | AC50 [9]: 4.73 µM (active); IC50 (Nonstructural protein 1): 3.44 µM (active); AC50 (INS1): 6.84 µM (active); AC50 [10]: 4.06 µM (active); AC50 [11]: 5.34 µM (active); AC50 [12]: 3.94 µM (active)
